In ChEMBL document CHEMBL4376803, “Recent Advances in the Exploration of Therapeutic Analogues of Gramicidin S, an Old but Still Potent Antimicrobial Peptide” (J Med Chem, 2019):
Values after ≈ are worked out from the molar mass of the structure shown. Blank lines part the entries; values can stand above or below the compound they belong to.

How the values were obtained:
Escherichia coli [1] = assay: Antibacterial activity against Escherichia coli ATCC 25922 after overnight incubation; type: functional
Enterococcus faecalis [2] = assay: Antibacterial activity against Enterococcus faecalis ATCC 29212 after overnight incubation; type: functional
Staphylococcus aureus [3] = assay: Antibacterial activity against Staphylococcus aureus ATCC 29213 after overnight incubation; type: functional
[4] = Hemolytic activity against RBC (unknown origin) at 100 ul after 4 hrs; type: ADME, cell-based, Erythrocyte; settings: red blood cells (unknown origin)
Escherichia coli [5] = assay: Antibacterial activity against Escherichia coli ATCC 25922 after 24 hrs by broth dilution method; type: functional; settings: ATCC 25922, 24 h
Enterococcus faecalis [6] = assay: Antibacterial activity against Enterococcus faecalis 1131 after 24 hrs by broth dilution method; type: functional; settings: Enterococcus faecalis, 1131, 24 h
Staphylococcus aureus [7] = assay: Antibacterial activity against Staphylococcus aureus 7323; type: functional
Pseudomonas aeruginosa [8] = assay: Antibacterial activity against Pseudomonas aeruginosa ATCC 19582 after 24 hrs by broth dilution method; type: functional; settings: ATCC 19582, 24 h
[9] = Haemolytic activity in human erythrocytes incubated for 30 mins; type: ADME, cell-based, Erythrocyte
Staphylococcus aureus [10] = assay: Antibacterial activity against Staphylococcus aureus 209P incubated for 20 hrs by liquid microdilution method; type: functional
Escherichia coli [11] = assay: Antibacterial activity against Escherichia coli K-12 strain W3110 incubated for 20 hrs by liquid microdilution method; type: functional; settings: K-12 substr. W3110, 20 h
Escherichia coli [12] = assay: Antibacterial activity against Escherichia coli NBRC 12734 after overnight incubation by microplate dilution method; type: functional
Priestia megaterium = assay: Antibacterial activity against Bacillus megaterium ATCC 19213 after overnight incubation by microplate dilution method; type: functional
Bacillus subtilis = assay: Antibacterial activity against Bacillus subtilis NBRC 3513 after overnight incubation by microplate dilution method; type: functional
Pseudomonas aeruginosa [13] = assay: Antibacterial activity against Pseudomonas aeruginosa NBRC 3080 after overnight incubation by microplate dilution method; type: functional
[14] = Hemolytic activity in sheep RBC incubated for 30 mins; type: ADME, cell-based, Ovis aries, Erythrocyte; settings: sheep red blood cells
Staphylococcus aureus [15] = assay: Antibacterial activity against Staphylococcus aureus NBRC 12732 after overnight incubation by microplate dilution method; type: functional
Staphylococcus aureus [16] = assay: Antibacterial activity against methicillin-resistant Staphylococcus aureus NT 1110301981H-T034-PVL+ incubated for 24 hrs; type: functional
Pseudomonas aeruginosa [17] = assay: Antibacterial activity against Pseudomonas aeruginosa ATCC 27853 incubated for 24 hrs; type: functional; settings: ATCC 27853, 24 h
Escherichia coli [18] = assay: Antibacterial activity against Escherichia coli ATCC 25922 after 24 hrs; type: functional; settings: ATCC 25922, 24 h
Enterococcus faecalis [19] = assay: Antibacterial activity against Enterococcus faecalis ATCC 29212 after 24 hrs; type: functional; settings: ATCC 29212, 24 h
Staphylococcus aureus [20] = assay: Antibacterial activity against Staphylococcus aureus ATCC 29213 after 24 hrs; type: functional; settings: ATCC 29213, 24 h

MIC (Escherichia coli [1]): 64 µg/mL (≈ 54.5 µM)
MIC (Enterococcus faecalis [2]): 32 µg/mL (≈ 27.3 µM)
MIC (Staphylococcus aureus [3]): 32 µg/mL (≈ 27.3 µM)
Compound: CC(C)C[C@@H]1NC(=O)[C@H](CCCN)NC(=O)[C@H](C(C)C)NC(=O)[C@@H]2CCCN2C(=O)[C@@H](Cc2ccc(O)cc2)NC(=O)[C@H](CC(C)C)NC(=O)[C@@H](CCCN)NC(=O)[C@H](C(C)C)NC(=O)[C@@H]2CCCN2C(=O)[C@@H](Cc2ccc(O)cc2)NC1=O

MIC (Escherichia coli [5]): 64 µg/mL (≈ 50.3 µM)
MIC (Enterococcus faecalis [6]): 4 µg/mL (≈ 3.14 µM)
MIC (Staphylococcus aureus [7]): 4 µg/mL (≈ 3.14 µM)
MIC (Pseudomonas aeruginosa [8]): > 64 µg/mL
Compound: CC(C)C[C@@H]1NC(=O)[C@H](CCCN)NC(=O)[C@H](C(C)C)NC(=O)[C@@H]2CCCN2C(=O)[C@@H](Cc2cn(Cc3cccc4ccccc34)nn2)NC(=O)[C@H](CC(C)C)NC(=O)[C@@H](CCCN)NC(=O)[C@H](C(C)C)NC(=O)[C@@H]2CCCN2C(=O)[C@@H](Cc2ccccc2)NC1=O
HC50 at 4 h [4]: 5 to 10 µg/mL

MIC (Escherichia coli [5]): 32 µg/mL (≈ 28.3 µM)
MIC (Enterococcus faecalis [6]): 64 µg/mL (≈ 56.5 µM)
MIC (Staphylococcus aureus [7]): 16 µg/mL (≈ 14.1 µM)
MIC (Pseudomonas aeruginosa [8]): > 64 µg/mL
Compound: CC(C)C[C@@H]1NC(=O)[C@H](CCCN)NC(=O)[C@H](C(C)C)NC(=O)[C@@H]2CCCN2C(=O)[C@@H](Cc2c[nH]nn2)NC(=O)[C@H](CC(C)C)NC(=O)[C@@H](CCCN)NC(=O)[C@H](C(C)C)NC(=O)[C@@H]2CCCN2C(=O)[C@@H](Cc2ccccc2)NC1=O
HC50 at 4 h [4]: 45 to 55 µg/mL

Compound: CC(C)C[C@@H]1NC(=O)[C@H](CCCN)NC(=O)[C@H](C(C)C)NC(=O)[C@@H]2C[C@@H](N)CN2C(=O)[C@@H](Cc2ccccc2)NC(=O)[C@H](CC(C)C)NC(=O)[C@H](CCCN)NC(=O)[C@H](C(C)C)NC(=O)[C@@H]2C[C@@H](N)CN2C(=O)[C@@H](Cc2ccccc2)NC1=O [listing 1 of 2 here]
HC50 at 0.5 h [9]: 50 to 100 µg/mL

MIC (Staphylococcus aureus [10]): 32 µg/mL (≈ 27.3 µM)
MIC (Escherichia coli [11]): 64 µg/mL (≈ 54.6 µM)
Compound: CC(C)C[C@@H]1NC(=O)[C@H](CCCN)NC(=O)[C@H](C(C)C)NC(=O)[C@@H]2C[C@@H](N)CN2C(=O)[C@@H](Cc2ccccc2)NC(=O)[C@H](CC(C)C)NC(=O)[C@H](CCCN)NC(=O)[C@H](C(C)C)NC(=O)[C@@H]2C[C@@H](N)CN2C(=O)[C@@H](Cc2ccccc2)NC1=O [listing 2 of 2 here]

Compound: CC(C)C[C@@H]1NC(=O)[C@H](CCCN)NC(=O)[C@H](C(C)C)NC(=O)[C@@H]2C[C@@H](N[C@@H](Cc3ccccc3)C(=O)O)CN2C(=O)[C@@H](Cc2ccccc2)NC(=O)[C@H](CC(C)C)NC(=O)[C@H](CCCN)NC(=O)[C@H](C(C)C)NC(=O)[C@@H]2C[C@@H](N[C@@H](Cc3ccccc3)C(=O)O)CN2C(=O)[C@@H](Cc2ccccc2)NC1=O [listing 1 of 2 here]
HC50 at 0.5 h [9]: 20 to 50 µg/mL

MIC (Staphylococcus aureus [10]): 8 µg/mL (≈ 5.45 µM)
MIC (Escherichia coli [11]): 16 µg/mL (≈ 10.9 µM)
Compound: CC(C)C[C@@H]1NC(=O)[C@H](CCCN)NC(=O)[C@H](C(C)C)NC(=O)[C@@H]2C[C@@H](N[C@@H](Cc3ccccc3)C(=O)O)CN2C(=O)[C@@H](Cc2ccccc2)NC(=O)[C@H](CC(C)C)NC(=O)[C@H](CCCN)NC(=O)[C@H](C(C)C)NC(=O)[C@@H]2C[C@@H](N[C@@H](Cc3ccccc3)C(=O)O)CN2C(=O)[C@@H](Cc2ccccc2)NC1=O [listing 2 of 2 here]

MIC (Escherichia coli [12]): 25 µg/mL (≈ 19.3 µM)
MIC (Priestia megaterium): 3.13 µg/mL (≈ 2.41 µM)
MIC (Bacillus subtilis): 6.25 µg/mL (≈ 4.81 µM)
MIC (Pseudomonas aeruginosa [13]): 100 µg/mL (≈ 77 µM)
MIC (Staphylococcus aureus [15]): 3.13 µg/mL (≈ 2.41 µM)
Compound: CC(C)C[C@@H]1NC(=O)[C@H](CCCN)NC(=O)[C@H](C(C)C)NC(=O)[C@@H]2CCCN2C(=O)[C@@H](Cc2ccccc2)NC(=O)[C@H](CC(C)C)NC(=O)[C@H](CCCN)NC(=O)[C@H](C(C)C)NC(=O)[C@@H]2CCCN2C(=O)NC(=O)[C@H](Cc2ccccc2)NC(=O)[C@H](CCCN)NC1=O
HC50 at 0.5 h [14]: 90 to 100 µg/mL

Compound: CC(C)[C@@H]1NC(=O)[C@H](CCCN)NC(=O)[C@@H]2CCCN2C(=O)[C@@H](Cc2ccccc2)NC(=O)[C@H](CCCN)NC(=O)[C@@H](C(C)C)NC(=O)[C@H](CCCN)NC(=O)[C@@H]2CCCN2C(=O)[C@@H](Cc2ccccc2)NC(=O)[C@H](CCCN)NC1=O
MIC (Staphylococcus aureus [16]): > 64 µg/mL
MIC (Pseudomonas aeruginosa [17]): > 64 µg/mL
MIC (Escherichia coli [18]): > 64 µg/mL
MIC (Enterococcus faecalis [19]): > 64 µg/mL
MIC (Staphylococcus aureus [20]): > 64 µg/mL
